Measurements published in the NIST ThermoML archive (doi:10.1016/j.jct.2015.11.012).
Numbers after ± are expanded uncertainties.

Assays:
[1] = 100 kPa, Liquid; for viscosity: Capillary tube (Ostwald / Ubbelohde) method; for speed of sound: Frequency=2 MHz, Linear variable-path acoustic interferometer; for mass density: Vibrating tube method
[2] = xn = mol fraction of the nth substance listed; conditions: 100 kPa, Liquid; for viscosity: Capillary tube (Ostwald / Ubbelohde) method; for speed of sound: Frequency=2 MHz, Linear variable-path acoustic interferometer; for mass density: Vibrating tube method

Compound | viscosity ([1]; 303.15 K) | speed of sound ([1]; 303.15 K) | mass density ([1]; 303.15 K) | viscosity ([1]; 308.15 K) | speed of sound ([1]; 308.15 K) | mass density ([1]; 308.15 K) | viscosity ([1]; 313.15 K) | speed of sound ([1]; 313.15 K) | mass density ([1]; 313.15 K) | viscosity ([1]; 318.15 K) | speed of sound ([1]; 318.15 K) | mass density ([1]; 318.15 K) | also measured
OCCCl [1-chloro-2-hydroxyethane] | 2.578 ± 1 mPa·s | 1342.8 ± 8.2 m/s | 1192.12 ± 4 kg/m3 | 2.259 ± 1 mPa·s | 1328.5 ± 8.1 m/s | 1186.63 ± 4 kg/m3 | 1.852 mPa·s | 1315.5 ± 8 m/s | 1178.05 ± 4 kg/m3 | 1.564 mPa·s | 1301.2 ± 7.9 m/s | 1170.87 ± 4 kg/m3 | 
NCCO [2-aminoethan-1-ol] | 14.42 ± 1 mPa·s | 1703.1 ± 10 m/s | 1008.72 ± 4 kg/m3 | 11.71 ± 1 mPa·s | 1685.8 ± 10 m/s | 1004.65 ± 4 kg/m3 | 9.564 ± 1 mPa·s | 1671.2 ± 10 m/s | 1000.74 ± 4 kg/m3 | 7.558 ± 1 mPa·s | 1653.2 ± 10 m/s | 996.04 ± 4 kg/m3 | 
NCCO [2-aminoethan-1-ol] + Nc1cccc(Cl)c1 |  |  |  |  |  |  |  |  |  |  |  |  | viscosity ([2]; 303.15 K, x2 = 0): 14.42 ± 1 mPa·s; speed of sound ([2]; 303.15 K, x2 = 0): 1703.1 ± 10 m/s; mass density ([2]; 303.15 K, x2 = 0): 1008.72 ± 4 kg/m3; viscosity ([2]; 308.15 K, x2 = 0): 11.71 ± 1 mPa·s; speed of sound ([2]; 308.15 K, x2 = 0): 1685.8 ± 10 m/s; mass density ([2]; 308.15 K, x2 = 0): 1004.65 ± 4 kg/m3; viscosity ([2]; 313.15 K, x2 = 0): 9.564 ± 1 mPa·s; speed of sound ([2]; 313.15 K, x2 = 0): 1671.2 ± 10 m/s; mass density ([2]; 313.15 K, x2 = 0): 1000.74 ± 4 kg/m3; viscosity ([2]; 318.15 K, x2 = 0): 7.558 ± 1 mPa·s; speed of sound ([2]; 318.15 K, x2 = 0): 1653.2 ± 10 m/s; mass density ([2]; 318.15 K, x2 = 0): 996.04 ± 4 kg/m3
OCCc1ccccc1 [2-phenylethanol] | 9.045 ± 1 mPa·s | 1508.4 ± 9.2 m/s | 1012.34 ± 4 kg/m3 | 7.193 ± 1 mPa·s | 1490.8 ± 9.1 m/s | 1008.63 ± 4 kg/m3 | 6.085 ± 1 mPa·s | 1470.6 ± 9 m/s | 1004.84 ± 4 kg/m3 | 4.984 ± 1 mPa·s | 1456.4 ± 8.9 m/s | 1000.94 ± 4 kg/m3 | 
OCCc1ccccc1 [2-phenylethanol] + Nc1cccc(Cl)c1 |  |  |  |  |  |  |  |  |  |  |  |  | viscosity ([2]; 303.15 K, x2 = 0): 9.045 ± 1 mPa·s; speed of sound ([2]; 303.15 K, x2 = 0): 1508.4 ± 9.2 m/s; mass density ([2]; 303.15 K, x2 = 0): 1012.34 ± 4 kg/m3; viscosity ([2]; 308.15 K, x2 = 0): 7.193 ± 1 mPa·s; speed of sound ([2]; 308.15 K, x2 = 0): 1490.8 ± 9.1 m/s; mass density ([2]; 308.15 K, x2 = 0): 1008.63 ± 4 kg/m3; viscosity ([2]; 313.15 K, x2 = 0): 6.085 ± 1 mPa·s; speed of sound ([2]; 313.15 K, x2 = 0): 1470.6 ± 9 m/s; mass density ([2]; 313.15 K, x2 = 0): 1004.84 ± 4 kg/m3; viscosity ([2]; 318.15 K, x2 = 0): 4.984 ± 1 mPa·s; speed of sound ([2]; 318.15 K, x2 = 0): 1456.4 ± 8.9 m/s; mass density ([2]; 318.15 K, x2 = 0): 1000.94 ± 4 kg/m3
Nc1cccc(Cl)c1 [3-chlorobenzenamine] | 4.255 ± 1 mPa·s | 1517.5 ± 9.3 m/s | 1205.32 ± 4 kg/m3 | 3.842 ± 1 mPa·s | 1501.2 ± 9.2 m/s | 1200.75 ± 4 kg/m3 | 3.43 ± 1 mPa·s | 1480.3 ± 9 m/s | 1196.02 ± 4 kg/m3 | 3.022 ± 1 mPa·s | 1464.8 ± 8.9 m/s | 1191.25 ± 4 kg/m3 | 
Nc1cccc(Cl)c1 [3-chlorobenzenamine] + OCCCl |  |  |  |  |  |  |  |  |  |  |  |  | viscosity ([2]; 303.15 K, x1 = 1): 4.255 ± 1 mPa·s; speed of sound ([2]; 303.15 K, x1 = 1): 1517.5 ± 9.3 m/s; mass density ([2]; 303.15 K, x1 = 1): 1205.32 ± 4 kg/m3; viscosity ([2]; 308.15 K, x1 = 1): 3.842 ± 1 mPa·s; speed of sound ([2]; 308.15 K, x1 = 1): 1501.2 ± 9.2 m/s; mass density ([2]; 308.15 K, x1 = 1): 1200.75 ± 4 kg/m3; viscosity ([2]; 313.15 K, x1 = 1): 3.43 ± 1 mPa·s; speed of sound ([2]; 313.15 K, x1 = 1): 1480.3 ± 9 m/s; mass density ([2]; 313.15 K, x1 = 1): 1196.02 ± 4 kg/m3; viscosity ([2]; 318.15 K, x1 = 1): 3.022 ± 1 mPa·s; speed of sound ([2]; 318.15 K, x1 = 1): 1464.8 ± 8.9 m/s; mass density ([2]; 318.15 K, x1 = 1): 1191.25 ± 4 kg/m3
